Laboratory results reported in ChEMBL document CHEMBL3991601, “The target landscape of clinical kinase drugs” (Science, 2017).
Activity calls are given as the source filed them.

Columns and labels:
[1] = molecular target: T1, ATP-dependent RNA helicase DHX30 (Homo sapiens, UniProt Q7L2E3)
T1 sequence (Q7L2E3 whole entry): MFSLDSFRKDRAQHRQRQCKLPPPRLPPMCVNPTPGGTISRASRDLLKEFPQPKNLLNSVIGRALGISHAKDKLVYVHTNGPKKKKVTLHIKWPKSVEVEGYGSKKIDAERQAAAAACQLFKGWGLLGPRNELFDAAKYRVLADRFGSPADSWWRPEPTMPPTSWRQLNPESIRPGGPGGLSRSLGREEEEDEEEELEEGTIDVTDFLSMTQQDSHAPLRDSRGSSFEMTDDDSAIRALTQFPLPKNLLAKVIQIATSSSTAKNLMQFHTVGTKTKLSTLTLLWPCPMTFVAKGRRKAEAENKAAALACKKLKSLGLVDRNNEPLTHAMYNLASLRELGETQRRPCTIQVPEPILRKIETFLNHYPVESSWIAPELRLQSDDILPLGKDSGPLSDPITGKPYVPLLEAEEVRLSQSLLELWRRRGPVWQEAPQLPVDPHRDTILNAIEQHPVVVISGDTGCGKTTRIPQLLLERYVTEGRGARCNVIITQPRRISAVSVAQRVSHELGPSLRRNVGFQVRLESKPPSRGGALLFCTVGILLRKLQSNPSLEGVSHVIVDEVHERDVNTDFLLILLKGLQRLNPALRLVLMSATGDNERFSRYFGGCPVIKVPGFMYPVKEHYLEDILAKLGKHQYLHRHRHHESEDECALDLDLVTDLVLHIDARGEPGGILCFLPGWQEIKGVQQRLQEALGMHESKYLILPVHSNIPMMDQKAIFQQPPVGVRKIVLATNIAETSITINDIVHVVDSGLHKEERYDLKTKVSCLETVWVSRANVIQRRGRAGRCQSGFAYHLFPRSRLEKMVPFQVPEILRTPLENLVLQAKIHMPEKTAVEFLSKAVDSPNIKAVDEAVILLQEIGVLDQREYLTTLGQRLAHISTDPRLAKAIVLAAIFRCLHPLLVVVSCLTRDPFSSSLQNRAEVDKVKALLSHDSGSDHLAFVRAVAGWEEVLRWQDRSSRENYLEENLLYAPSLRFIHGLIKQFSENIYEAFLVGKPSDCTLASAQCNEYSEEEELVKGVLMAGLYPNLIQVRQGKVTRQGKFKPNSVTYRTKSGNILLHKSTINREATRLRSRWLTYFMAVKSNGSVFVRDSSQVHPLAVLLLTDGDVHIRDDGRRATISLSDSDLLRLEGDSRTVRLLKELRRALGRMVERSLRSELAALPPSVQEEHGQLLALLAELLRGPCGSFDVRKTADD

Ephrin type-A receptor 7 = Ephrin type-A receptor 7 (Homo sapiens, UniProt Q15375)
Ephrin type-A receptor 7, sequence (Q15375 whole entry): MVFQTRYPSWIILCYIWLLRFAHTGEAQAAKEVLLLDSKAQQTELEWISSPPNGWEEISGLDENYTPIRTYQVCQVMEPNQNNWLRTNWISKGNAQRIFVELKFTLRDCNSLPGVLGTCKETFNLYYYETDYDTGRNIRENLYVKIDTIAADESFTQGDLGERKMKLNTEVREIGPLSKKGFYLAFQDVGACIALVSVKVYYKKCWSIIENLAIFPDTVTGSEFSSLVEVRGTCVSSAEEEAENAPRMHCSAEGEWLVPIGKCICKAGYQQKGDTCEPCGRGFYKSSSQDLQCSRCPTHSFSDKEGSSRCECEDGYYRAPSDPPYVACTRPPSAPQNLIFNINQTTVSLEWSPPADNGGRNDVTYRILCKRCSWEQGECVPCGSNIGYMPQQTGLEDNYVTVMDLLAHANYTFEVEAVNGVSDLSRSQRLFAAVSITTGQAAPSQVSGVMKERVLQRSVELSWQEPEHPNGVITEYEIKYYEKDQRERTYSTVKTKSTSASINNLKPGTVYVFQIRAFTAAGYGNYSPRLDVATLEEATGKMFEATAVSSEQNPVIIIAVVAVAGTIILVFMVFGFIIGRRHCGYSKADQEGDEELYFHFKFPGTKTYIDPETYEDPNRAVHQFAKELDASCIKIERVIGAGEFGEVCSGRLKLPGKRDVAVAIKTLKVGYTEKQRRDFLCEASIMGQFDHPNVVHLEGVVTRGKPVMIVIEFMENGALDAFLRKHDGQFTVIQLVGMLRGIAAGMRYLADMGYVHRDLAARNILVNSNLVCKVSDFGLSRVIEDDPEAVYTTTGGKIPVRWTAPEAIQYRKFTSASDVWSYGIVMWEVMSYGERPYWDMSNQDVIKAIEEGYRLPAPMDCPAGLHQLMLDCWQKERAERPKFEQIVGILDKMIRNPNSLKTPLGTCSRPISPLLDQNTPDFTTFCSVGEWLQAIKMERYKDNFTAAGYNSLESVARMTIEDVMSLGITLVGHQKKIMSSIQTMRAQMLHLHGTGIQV

[2] = molecular target: Serine/threonine-protein kinase pim-2 (Homo sapiens, UniProt Q9P1W9)
Serine/threonine-protein kinase pim-2, sequence (Q9P1W9 whole entry): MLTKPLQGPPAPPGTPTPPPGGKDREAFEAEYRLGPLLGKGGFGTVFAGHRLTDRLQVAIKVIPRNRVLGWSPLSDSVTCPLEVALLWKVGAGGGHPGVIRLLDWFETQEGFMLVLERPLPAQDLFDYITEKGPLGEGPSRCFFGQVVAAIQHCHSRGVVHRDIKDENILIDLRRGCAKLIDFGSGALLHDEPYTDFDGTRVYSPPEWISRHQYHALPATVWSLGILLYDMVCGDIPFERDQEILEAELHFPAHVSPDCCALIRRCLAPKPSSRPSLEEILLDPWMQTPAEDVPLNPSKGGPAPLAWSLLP

[3] = molecular target: Membrane-associated progesterone receptor component 1 (Homo sapiens, UniProt O00264)
Membrane-associated progesterone receptor component 1, sequence (O00264 whole entry): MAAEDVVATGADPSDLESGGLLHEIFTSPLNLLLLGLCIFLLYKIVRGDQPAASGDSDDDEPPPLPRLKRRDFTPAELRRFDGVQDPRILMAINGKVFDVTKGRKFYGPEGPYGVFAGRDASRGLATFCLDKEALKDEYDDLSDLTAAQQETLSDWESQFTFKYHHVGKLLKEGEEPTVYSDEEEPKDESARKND

[4] = molecular target: T2, Long-chain-fatty-acid--CoA ligase 5 (Homo sapiens, UniProt Q9ULC5)
T2 sequence (Q9ULC5 whole entry): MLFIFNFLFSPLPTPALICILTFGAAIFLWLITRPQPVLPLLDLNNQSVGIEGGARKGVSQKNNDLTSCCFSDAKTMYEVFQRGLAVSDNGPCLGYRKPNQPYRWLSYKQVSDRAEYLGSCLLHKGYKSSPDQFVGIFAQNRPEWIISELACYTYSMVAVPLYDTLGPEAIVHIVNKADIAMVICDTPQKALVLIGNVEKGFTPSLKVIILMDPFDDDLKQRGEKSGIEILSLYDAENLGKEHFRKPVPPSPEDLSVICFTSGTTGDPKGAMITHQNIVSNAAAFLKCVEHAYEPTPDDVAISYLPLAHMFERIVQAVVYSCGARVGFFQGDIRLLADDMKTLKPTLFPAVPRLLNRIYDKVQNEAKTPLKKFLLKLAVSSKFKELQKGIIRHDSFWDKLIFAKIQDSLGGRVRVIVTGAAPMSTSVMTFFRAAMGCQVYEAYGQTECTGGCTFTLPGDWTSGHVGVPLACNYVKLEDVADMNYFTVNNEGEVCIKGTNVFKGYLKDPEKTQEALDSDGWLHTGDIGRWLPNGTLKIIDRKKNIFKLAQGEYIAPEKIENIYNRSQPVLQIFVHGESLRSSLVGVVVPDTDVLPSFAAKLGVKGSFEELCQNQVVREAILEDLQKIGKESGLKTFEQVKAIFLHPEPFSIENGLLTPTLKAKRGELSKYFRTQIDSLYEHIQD
Note: in the data inactive means no Kd found up to 30 µM.

Structure (SMILES)	Kd [1]	Kd (Ephrin type-A receptor 7)	Kd [2]	Kd [3]	Kd [4]
Cn1cc(-c2ccc3nnc(C(F)(F)c4ccc5ncccc5c4)n3n2)cn1 [JNJ-38877605]	> 30 µM (inactive)	> 30 µM (inactive)	> 30 µM (inactive)	> 30 µM (inactive)	> 30 µM (inactive)
CCc1cnn2c(NCc3ccc[n+]([O-])c3)cc(N3CCCC[C@H]3CCO)nc12 [DINACICLIB]		> 30 µM (inactive)	> 30 µM (inactive)	> 30 µM (inactive)	> 30 µM (inactive)
COc1ccc(-c2ccc3c(N4CCOC[C@@H]4C)nc(N4CCOC[C@@H]4C)nc3n2)cc1CO [AZD-8055]	> 30 µM (inactive)	> 30 µM (inactive)	> 30 µM (inactive)	> 30 µM (inactive)	
COc1cc2nccc(Oc3ccc(NC(=O)Nc4cc(C)on4)c(Cl)c3)c2cc1OC [TIVOZANIB]			> 30 µM (inactive)	> 30 µM (inactive)	> 30 µM (inactive)
CNC(=O)CN1CCC(Oc2cc3c(Nc4cccc(Cl)c4F)ncnc3cc2OC)CC1 [SAPITINIB]		> 30 µM (inactive)	> 30 µM (inactive)	> 30 µM (inactive)	> 30 µM (inactive)
CCCS(=O)(=O)Nc1ccc(F)c(C(=O)c2c[nH]c3ncc(-c4ccc(Cl)cc4)cc23)c1F [VEMURAFENIB]			> 30 µM (inactive)	> 30 µM (inactive)	> 30 µM (inactive)
COC(=O)[C@@]1(O)C[C@H]2O[C@]1(C)n1c3ccccc3c3c4c(c5c6ccccc6n2c5c31)C(=O)NC4 [K-252A]	> 30 µM (inactive)	> 30 µM (inactive)	> 30 µM (inactive)	> 30 µM (inactive)	> 30 µM (inactive)
Cc1cc2c(F)c(Oc3ncnn4cc(OC[C@@H](C)OC(=O)[C@H](C)N)c(C)c34)ccc2[nH]1 [BRIVANIB ALANINATE]	> 30 µM (inactive)	> 30 µM (inactive)	> 30 µM (inactive)		> 30 µM (inactive)
Cc1ccc(-n2nc(C(C)(C)C)cc2NC(=O)NCc2cc(F)ccc2Oc2ccc3c(cnn3CCO)c2)cc1 [PEXMETINIB]	> 30 µM (inactive)	3.31 µM (active)	> 30 µM (inactive)	> 30 µM (inactive)	> 30 µM (inactive)
Cn1cc(-c2ccc(F)c(C(F)(F)F)c2)nc1C1CCN(c2ncnc3[nH]ncc23)CC1 [LY-2584702]		> 30 µM (inactive)	> 30 µM (inactive)	> 30 µM (inactive)	> 30 µM (inactive)
CNC(=O)c1cc(Oc2ccc(NC(=O)Nc3ccc(Cl)c(C(F)(F)F)c3)c(F)c2)ccn1 [REGORAFENIB]	> 30 µM (inactive)		> 30 µM (inactive)	> 30 µM (inactive)	> 30 µM (inactive)
OCCn1cc(-c2cnc3nnn(Cc4ccc5ncccc5c4)c3n2)cn1 [PF-04217903]	> 30 µM (inactive)	> 30 µM (inactive)	> 30 µM (inactive)	> 30 µM (inactive)	> 30 µM (inactive)
CN1CC[C@@H](c2c(O)cc(O)c3c(=O)cc(-c4ccccc4Cl)oc23)[C@@H]1CO	> 30 µM (inactive)	> 30 µM (inactive)	> 30 µM (inactive)		> 30 µM (inactive)
COCCNCc1ccc(-c2cc3nccc(Oc4ccc(NC(=S)NC(=O)Cc5ccc(F)cc5)cc4F)c3s2)nc1 [GLESATINIB]	> 30 µM (inactive)		> 30 µM (inactive)	> 30 µM (inactive)	> 30 µM (inactive)
Cc1c(F)cc(C(=O)NC2CC2)cc1-c1ccc(C(=O)NCC(C)(C)C)cn1 [LOSMAPIMOD]	> 30 µM (inactive)	> 30 µM (inactive)	> 30 µM (inactive)		1.69 µM
CCN1CCN(Cc2ccc(-c3cc4c(N[C@H](C)c5ccccc5)ncnc4[nH]3)cc2)CC1 [AEE-788]	> 30 µM (inactive)	> 30 µM (inactive)	> 30 µM (inactive)		> 30 µM (inactive)
CC(=O)Nc1cccc(-n2c(=O)n(C3CC3)c(=O)c3c(Nc4ccc(I)cc4F)n(C)c(=O)c(C)c32)c1 [TRAMETINIB]	> 30 µM (inactive)	> 30 µM (inactive)	> 30 µM (inactive)	> 30 µM (inactive)	
O=C(O)[C@]1(Cc2cccc(Nc3nccs3)n2)CC[C@@H](Oc2cccc(Cl)c2F)CC1 [MK-5108]	> 30 µM (inactive)	> 30 µM (inactive)	> 30 µM (inactive)	> 30 µM (inactive)	
Cc1ccc(NC(=O)c2ccc(CN3CC[C@H](N(C)C)C3)c(C(F)(F)F)c2)cc1Nc1nccc(-c2cncnc2)n1 [BAFETINIB]		> 30 µM (inactive)	> 30 µM (inactive)	> 30 µM (inactive)	> 30 µM (inactive)
Cc1cc(-c2cc(O)ccc2Cl)cc2nnc(Nc3ccc(OCCN4CCCC4)cc3)nc12	> 30 µM (inactive)	> 30 µM (inactive)	> 30 µM (inactive)	> 30 µM (inactive)	> 30 µM (inactive)
COc1cc(CCc2cc(NC(=O)c3ccc(N4C[C@@H](C)N[C@@H](C)C4)cc3)n[nH]2)cc(OC)c1 [AZD-4547]	> 30 µM (inactive)	> 30 µM (inactive)	> 30 µM (inactive)	> 30 µM (inactive)	> 30 µM (inactive)
